In patent publication US7598420B1, “Rasagiline formulations and processes for their preparation” (Teva Pharmaceutical Industries, Ltd., priority 2005, dated 2009):

Assays:
[1] = tested on: monoamine oxidase enzyme Type-B (MAO-B); conditions: cited from earlier work
[2] = 80° C.-100° C., presence of a chloride ion source and low pH

| SMILES | MAO-B inhibitory activity [1] | degree of selectivity for MAO-B inhibition ([1]; compared with the corresponding racemic form) | chlorination of the triple bond to form chlorinated allyl aminoindans (2-chloro and cis-3-chloro) [2] |
| --- | --- | --- | --- |
| C#CCN[C@@H]1CCc2ccccc21 [(R)-PAI, N-propargyl-1(R)-aminoindan] | active MAO-B inhibitor | surprisingly higher than that of the corresponding racemic form |  |
| C#CCN[C@@H]1CCc2ccccc21.CS(=O)(=O)O [rasagiline mesylate, N-propargyl-1(R)-aminoindan mesylate] |  |  | susceptible to chlorination |
| C#CCN[C@H]1CCc2ccccc21 [(S)-PAI] | extremely low MAO-B inhibitory activity |  |  |
